{"source": "patent US11351260B2", "about": "“Photocleavable cobalt-nitrosyl complex and nitric oxide carrier containing the same” (DAEGU GYEONGBUK INSTITUTE OF SCIENCE AND TECHNOLOGY, priority 2019, dated 2022)", "system": "EGFR", "test": "EGFR single-particle tracking and diffusion analysis (dark-field, anti-EGFR-AuNP)", "type": "cell-based", "conditions": "ERK-KTR cells; NOExo treatment (complex of Example 1 + hν) or EGF treatment; untreated control 0.071", "source_text": "To confirm whether the activation of ERK by NO generated from the complex of Example 1 was induced by other receptors or membrane features, thus perturbing other signaling pathways, such as the MAPK pathway activated by the […] of EGF receptors (EGFRs) or by nonspecific disturbances caused by the formation of cellular membranes like lipid rafts, individual EGFRs in live cells were tracked, and analyzed.\nTime-lapse dark-field microscope images were taken every 20 ms for 10 s. Lateral diffusion motion of protein was analyzed by particle trajectories. TrackMate plugin on Image J was used for single-particle tracking and trajectory analysis. For each particle, mean square displacement (MSD) was calculated from the x, y position and time information obtained from trajectory analysis; MSD(t)=<(xi+n−xi)^2+(yi+n−yi)^2>. The MSD versus time intervals were plotted up to the time lag (t) equivalent to 1/10th of the trajectory duration, then fitted to a linear equation corresponding to the Brownian motion. Diffusion coefficient (D) was calculated from the slope of the first ten points of the MSD plot; MSD=4Dt.\nFor single-molecule tracking of EGFR, anti-EGFR (EGFR anti-bodies) was conjugated to gold nanoparticles (AuNPs, 50 nm in diameter) using the biotin-neutravidin interaction (FIG. 8A), achieving high specificity (FIG. 8B). […]"}
{"substance": "epidermal growth factor [EGF, reference compound]", "values": [{"measurement": "diffusion coefficient of EGFR (DEGFR)", "result": 0.017, "unit": "μm^2 s^−1"}]}
